Measured values reported in patent publication US12077539B2, “Imidazole and triazole KRAS inhibitors” (Incyte Corporation, priority 2021, dated 2024).

Legend:
KRAS G12D = KRAS G12D (Homo sapiens, UniProt P01116, G12D); assay: GDP-GTP exchange assay, KRAS G12D (bodipy-GDP/GppNHp, SOS1); format: biochemical; conditions: bodipy-loaded KRAS G12D 2.5 nM, 4 hours incubation after GppNHp-SOS1; read-out: G12D_exchange (KRAS_G12D exchange assay IC50)
Description: The inhibitor potency of the exemplified compounds was determined in a fluorescence based guanine nucleotide exchange assay, which measures the exchange of bodipy-GDP (fluorescently labeled GDP) for GppNHp (Non-hydrolyzable GTP analog) to generate the active state of KRAS in the presence of SOS1 (guanine nucleotide exchange factor). Inhibitors were serially diluted in DMSO and a volume of 0.1 μL was transferred to the wells of a black low volume 384-well plate. 5 μL/well volume of bodipy-loaded KRAS G12C diluted to 5 nM in assay buffer (25 mM Hepes pH 7.5, 50 mM NaCl, 10 mM MgCl2 and 0.01% Brij-35) was added to the plate and pre-incubated with inhibitor for 2 hours at ambient temperature. Appropriate controls (enzyme with no inhibitor or with a G12C inhibitor (AMG-510)) were included on the plate. The exchange was initiated by the addition of a 5 μL/well volume containing 1 mM GppNHp and 300 nM SOS1 in assay buffer. The 10 μL/well reaction concentration of the bodipy-loaded KRAS G12C, GppNHp, and SOS1 were 2.5 nM, 500 uM, and 150 nM, respectively. The reaction plates were incubated at ambient temperature for 2 hours, a time estimated for complete GDP-GTP exchange in the absence of inhibitor. […] Fluorescence intensities were measured on a PheraStar plate reader instrument (BMG Labtech) with excitation at 485 nm and emission at 520 nm. […]

[1] = test system: MIA PaCa-2 (KRAS G12C) cells; assay: Cellular pERK HTRF assay, KRAS_G12C pERK; format: cell-based; conditions: Homo sapiens, 4 hours incubation, HTRF phospho-ERK 1/2, read-out: G12C_pERK (KRAS_G12C pERK assay IC50)
Description: MIA PaCa-2 (KRAS G12C; ATCC® CRL-1420), A427 (KRAS G12D; ATCC® HTB53), HPAF-II (KRAS G12D; ATCC® CRL-1997) and NCI-H838 (KRAS WT; ATCC® CRL-5844) cells are purchased from ATCC and maintained in RPMI 1640 media supplemented with 10% FBS (Gibco/Life Technologies). The cells are plated at 5000 cells per well (8 uL) into Greiner 384-well low volume, flat-bottom, tissue culture treated white plates and incubated overnight at 37° C., 5% CO2. The next morning, test compound stock solutions are diluted in media at 3× the final concentration, and 4 uL are added to the cells. The plate is mixed by gentle rotation for 30 seconds (250 rpm) at room temperature. The cells are incubated with the KRAS G12C and G12D compounds for 4 hours or 2 hours respectively at 37° C., 5% CO2.
4 uL of 4× lysis buffer with blocking reagent (1:25) (Cisbio) are added to each well and plates are rotated gently (300 rpm) for 30 minutes at room temperature. 4 uL per well of Cisbio anti Phospho-ERK 1/2 d2 is mixed with anti Phospho-ERK 1/2 Cryptate (1:1) are added to each well, mixed by rotation and incubated overnight in the dark at room temperature. Plates are read on the Pherastar plate reader at 665 nm and 620 nm wavelengths. IC50 determination is performed by fitting the curve of inhibitor percent inhibition versus the log of the inhibitor concentration using the GraphPad Prism 7 software.

KRAS G12C = KRAS G12C (Homo sapiens, UniProt P01116, G12C); assay: GDP-GTP exchange assay, KRAS G12C (bodipy-GDP/GppNHp, SOS1); format: biochemical; conditions: bodipy-loaded KRAS G12C 2.5 nM, 2 hours pre-incubation, 2 hours exchange with GppNHp and SOS1; read-out: G12C_exchange (KRAS_G12C exchange assay IC50)
Chain of KRAS G12C (P01116 1-188 isoform P01116-2 G12C): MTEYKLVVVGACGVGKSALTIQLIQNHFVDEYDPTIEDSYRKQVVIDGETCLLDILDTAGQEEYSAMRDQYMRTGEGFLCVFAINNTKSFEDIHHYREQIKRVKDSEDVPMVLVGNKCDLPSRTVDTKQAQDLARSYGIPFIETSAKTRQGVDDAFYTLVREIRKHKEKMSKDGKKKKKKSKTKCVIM
Description: The inhibitor potency of the exemplified compounds was determined in a fluorescence based guanine nucleotide exchange assay, which measures the exchange of bodipy-GDP (fluorescently labeled GDP) for GppNHp (Non-hydrolyzable GTP analog) to generate the active state of KRAS in the presence of SOS1 (guanine nucleotide exchange factor). Inhibitors were serially diluted in DMSO and a volume of 0.1 μL was transferred to the wells of a black low volume 384-well plate. 5 μL/well volume of bodipy-loaded KRAS G12C diluted to 5 nM in assay buffer (25 mM Hepes pH 7.5, 50 mM NaCl, 10 mM MgCl2 and 0.01% Brij-35) was added to the plate and pre-incubated with inhibitor for 2 hours at ambient temperature. Appropriate controls (enzyme with no inhibitor or with a G12C inhibitor (AMG-510)) were included on the plate. The exchange was initiated by the addition of a 5 μL/well volume containing 1 mM GppNHp and 300 nM SOS1 in assay buffer. The 10 μL/well reaction concentration of the bodipy-loaded KRAS G12C, GppNHp, and SOS1 were 2.5 nM, 500 uM, and 150 nM, respectively. The reaction plates were incubated at ambient temperature for 2 hours, a time estimated for complete GDP-GTP exchange in the absence of inhibitor. For the KRAS G12D and G12V mutants, similar guanine nucleotide exchange assays were used with 2.5 nM as final concentration for the bodipy loaded KRAS proteins and with 4 hours and 3 hours incubation after adding GppNHp-SOS1 mixture for G12D and G12V respectively. A cyclic peptide described to selectively bind G12D mutant (Sakamoto et al., BBRC 484.3 (2017), 605-611) or internal compounds with confirmed binding were used as positive controls in the assay plates. Fluorescence intensities were measured on a PheraStar plate reader instrument (BMG Labtech) with excitation at 485 nm and emission at 520 nm.
Either GraphPad prism or XLfit was used to analyze the data. The IC50 values were derived by fitting the data to a four parameter logistic equation producing a sigmoidal dose-response curve with a variable Hill coefficient. Prism equation: Y=Bottom+(Top−Bottom)/(1+10^((Log IC50−X)*Hill slope)); XLfit equation: Y=(A+((B−A)/(1+((X/C)^D)))) where X is the logarithm of inhibitor concentration and Y is the response.

Chain of KRAS G12D (P01116 1-188 isoform P01116-2 G12D): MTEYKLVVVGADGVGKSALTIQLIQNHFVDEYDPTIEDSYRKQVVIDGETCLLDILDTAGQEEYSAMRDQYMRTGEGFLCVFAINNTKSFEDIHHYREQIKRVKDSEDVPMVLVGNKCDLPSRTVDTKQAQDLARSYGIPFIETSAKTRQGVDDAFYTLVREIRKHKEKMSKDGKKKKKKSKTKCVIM

SMILES | IC50 (KRAS G12D) [nM] | IC50 [1] [nM] | IC50 (KRAS G12C) [nM]
CNCCc1nc2c(N3CC(N(C)C)C3)nc3c(=O)n(-c4cc(O)cc5ccccc45)ccc3c2n1[C@H]1[C@H]2CN[C@@H]1C2 (racemic) [Example 3, 1-((1R,4R,5S)-2-azabicyclo[2.1.1]hexan-5-yl)-4-(3-(dimethylamino)azetidin-1-yl)-7-(3-hydroxynaphthalen-1-yl)-2-(2-(methylamino)ethyl)-1,7-dihydro-6H-imidazo[4,5-c][1,7]naphthyridin-6-one] | 100 to 1000 | – | –
C=CC(=O)N1CC[C@H](n2cnc3c(N4CC(N(C)C)C4)nc4c(=O)n(-c5cc(O)cc6ccccc56)ccc4c32)C[C@H]1CC#N [Example 1, 2-((2S,4S)-1-acryloyl-4-(4-(3-(dimethylamino)azetidin-1-yl)-7-(3-hydroxynaphthalen-1-yl)-6-oxo-6,7-dihydro-1H-imidazo[4,5-c][1,7]naphthyridin-1-yl)piperidin-2-yl)acetonitrile] | – | 1000 to 5000 | ≤ 100
CC#CC(=O)N1CC[C@H](n2cnc3c(N4CC(N(C)C)C4)nc4c(=O)n(-c5cc(O)cc6ccccc56)ccc4c32)C[C@H]1CC#N [Example 2, 2-((2S,4S)-1-(but-2-ynoyl)-4-(4-(3-(dimethylamino)azetidin-1-yl)-7-(3-hydroxynaphthalen-1-yl)-6-oxo-6,7-dihydro-1H-imidazo[4,5-c][1,7]naphthyridin-1-yl)piperidin-2-yl)acetonitrile] | – | 1000 to 5000 | ≤ 100
C=CC(=O)N1CC[C@H](n2cnc3c(N4CC(N(C)C)C4)nc4c(c32)CCN(c2cccc3ccccc23)C4)C[C@H]1CC#N [Example 4, 2-((2S,4S)-1-acryloyl-4-(4-(3-(dimethylamino)azetidin-1-yl)-7-(naphthalen-1-yl)-6,7,8,9-tetrahydro-1H-imidazo[4,5-c][1,7]naphthyridin-1-yl)piperidin-2-yl)acetonitrile] | – | – | 100 to 1000
C=CC(=O)N1CC[C@H](n2cnc3c(N4CC(N(C)C)C4)nc4c(c32)CCN(c2cc(O)cc3ccccc23)C4)C[C@H]1CC#N [Example 5, 2-((2S,4S)-1-acryloyl-4-(4-(3-(dimethylamino)azetidin-1-yl)-7-(3-hydroxynaphthalen-1-yl)-6,7,8,9-tetrahydro-1H-imidazo[4,5-c][1,7]naphthyridin-1-yl)piperidin-2-yl)acetonitrile] | – | 1000 to 5000 | ≤ 100
C=CC(=O)N1CC[C@H](n2cnc3c(N4CC(N(C)C)C4)nc4c(=O)n(-c5cccc6ccccc56)c(C(F)(F)F)cc4c32)C[C@H]1CC#N [Example 6, 2-((2S,4S)-1-acryloyl-4-(4-(3-(dimethylamino)azetidin-1-yl)-7-(naphthalen-1-yl)-6-oxo-8-(trifluoromethyl)-6,7-dihydro-1H-imidazo[4,5-c][1,7]naphthyridin-1-yl)piperidin-2-yl)acetonitrile] | – | ≤ 100 | ≤ 100
C=CC(=O)N1CCC(n2cnc3c(-c4cccnc4C)nc4c(=O)n(-c5cccc6ccccc56)c(C(F)(F)F)cc4c32)C[C@H]1CC#N (stereo partly drawn) [Example 7, 2-((2S)-1-acryloyl-4-(4-(2-methylpyridin-3-yl)-7-(naphthalen-1-yl)-6-oxo-8-(trifluoromethyl)-6,7-dihydro-1H-imidazo[4,5-c][1,7]naphthyridin-1-yl)piperidin-2-yl)acetonitrile] | – | ≤ 100 | ≤ 100
C=CC(=O)N1CC[C@H](n2cnc3c(O[C@@H](C)[C@@H]4CCCN4C)nc4c(=O)n(-c5cccc(Cl)c5C)c(C(F)(F)F)cc4c32)C[C@H]1CC#N [Example 8, 2-((2S,4S)-1-acryloyl-4-(7-(3-chloro-2-methylphenyl)-4-((S)-1-((S)-1-methylpyrrolidin-2-yl)ethoxy)-6-oxo-8-(trifluoromethyl)-6,7-dihydro-1H-imidazo[4,5-c][1,7]naphthyridin-1-yl)piperidin-2-yl)acetonitrile] | – | ≤ 100 | ≤ 100
CC#CC(=O)N1CC[C@H](n2cnc3c(O[C@@H](C)[C@@H]4CCCN4C)nc4c(=O)n(-c5cccc(Cl)c5C)c(C(F)(F)F)cc4c32)C[C@H]1CC#N [Example 9, 2-((2S,4S)-1-(but-2-ynoyl)-4-(7-(3-chloro-2-methylphenyl)-4-((S)-1-((S)-1-methylpyrrolidin-2-yl)ethoxy)-6-oxo-8-(trifluoromethyl)-6,7-dihydro-1H-imidazo[4,5-c][1,7]naphthyridin-1-yl)piperidin-2-yl)acetonitrile] | – | ≤ 100 | ≤ 100
C=C(F)C(=O)N1CC[C@H](n2cnc3c(O[C@@H](C)[C@@H]4CCCN4C)nc4c(=O)n(-c5cccc(Cl)c5C)c(C(F)(F)F)cc4c32)C[C@H]1CC#N [Example 10, 2-((2S,4S)-4-(7-(3-chloro-2-methylphenyl)-4-((S)-1-((S)-1-methylpyrrolidin-2-yl)ethoxy)-6-oxo-8-(trifluoromethyl)-6,7-dihydro-1H-imidazo[4,5-c][1,7]naphthyridin-1-yl)-1-(2-fluoroacryloyl)piperidin-2-yl)acetonitrile] | – | 100 to 1000 | ≤ 100
C=CC(=O)N1CC[C@H](n2nnc3c(N4CC(C)(N(C)C)C4)nc4c(=O)n(-c5cccc(Cl)c5C)c(C(F)(F)F)cc4c32)C[C@H]1CC#N [Example 11, 2-((2S,4S)-1-acryloyl-4-(7-(3-chloro-2-methylphenyl)-4-(3-(dimethylamino)-3-methylazetidin-1-yl)-6-oxo-8-(trifluoromethyl)-6,7-dihydro-1H-[1,2,3]triazolo[4,5-c][1,7]naphthyridin-1-yl)piperidin-2-yl)acetonitrile] | – | ≤ 100 | ≤ 100
Cc1c(Cl)cccc1-n1c(C(F)(F)F)cc2c(nc(N3CC(C)(N(C)C)C3)c3nnn([C@H]4CCN(C(=O)/C=C/CF)[C@H](CC#N)C4)c32)c1=O [Example 12, 2-((2S,4S)-4-(7-(3-chloro-2-methylphenyl)-4-(3-(dimethylamino)-3-methylazetidin-1-yl)-6-oxo-8-(trifluoromethyl)-6,7-dihydro-1H-[1,2,3]triazolo[4,5-c][1,7]naphthyridin-1-yl)-1-((E)-4-fluorobut-2-enoyl)piperidin-2-yl)acetonitrile] | – | ≤ 100 | ≤ 100
